Measurements taken from ChEMBL document CHEMBL4152218, “Novel hydrazide-hydrazone and amide substituted coumarin derivatives: Synthesis, cytotoxicity screening, microarray, radiolabeling and in vivo pharmacokinetic studies” (Eur J Med Chem, 2018).
The source made the active and inactive calls. No cut-off for these calls is given here.

Experiments:
PANC-1 [1] = assay: Antiproliferative activity against human PANC1 cells after 48 hrs by resazurin dye-based fluorescence assay; type: functional, cell-based; details: PANC-1, 48 h
TERT-RPE1 [2] = assay: Cytotoxicity against hTERT-RPE1 cells at 50 uM after 48 hrs by resazurin dye-based fluorescence assay relative to control; type: cell-based; details: human, tert-rpe1, 48 h
PANC-1 [3] = assay: Effect on EIF5 gene expression in human PANC1 cells at IC50 after 48 hrs by microarray analysis; type: functional, cell-based
HepG2 [4] = assay: Effect on GDF15 gene expression in human HepG2 cells at IC50 after 48 hrs by microarray analysis; type: functional, cell-based
HepG2 [5] = assay: Effect on GDF15 gene expression in human HepG2 cells at IC50 after 48 hrs by microarray analysis relative to control; type: functional
HepG2 [6] = assay: Induction of apoptosis in human HepG2 cells assessed as increase in caspase-3/7 activity after 24 hrs by Caspase-Glo 3/7 luminescence assay; type: functional, cell-based
HepG2 [7] = assay: Effect on DIDO1 gene expression in human HepG2 cells at IC50 after 48 hrs by microarray analysis; type: functional, cell-based
TERT-RPE1 [8] = assay: Cytotoxicity against hTERT-RPE1 cells at 12.50 uM after 48 hrs by resazurin dye-based fluorescence assay relative to control; type: cell-based; details: human, tert-rpe1, 48 h, 12.5 µM
PANC-1 [9] = assay: Effect on NUCKS1 gene expression in human PANC1 cells at IC50 after 48 hrs by microarray analysis; type: functional, cell-based
PANC-1 [10] = assay: Effect on PVRL3 gene expression in human PANC1 cells at IC50 after 48 hrs by microarray analysis; type: functional, cell-based
HepG2 [11] = assay: Effect on TOP3A gene expression in human HepG2 cells at IC50 after 48 hrs by microarray analysis; type: functional, cell-based
PANC-1 [12] = assay: Effect on THOC2 gene expression in human PANC1 cells at IC50 after 48 hrs by microarray analysis; type: functional, cell-based
HepG2 [13] = assay: Effect on OKL38 gene expression in human HepG2 cells at IC50 after 48 hrs by microarray analysis; type: functional, cell-based
HepG2 [14] = assay: Effect on LANCL 1 gene expression in human HepG2 cells at IC50 after 48 hrs by microarray analysis; type: functional, cell-based
HepG2 [15] = assay: Effect on GADD45A gene expression in human HepG2 cells at IC50 after 48 hrs by microarray analysis relative to control; type: functional
HepG2 [16] = assay: Effect on TOP2A gene expression in human HepG2 cells at IC50 after 48 hrs by microarray analysis relative to control; type: functional
CCRF-CEM = assay: Antiproliferative activity against human CCRF-CEM cells after 48 hrs by resazurin dye-based fluorescence assay; type: functional, cell-based
HepG2 [17] = assay: Effect on PYCR1 gene expression in human HepG2 cells at IC50 after 48 hrs by microarray analysis; type: functional, cell-based
[18] = Selectivity index, ratio of IC50 for hTERT-BJ cells to IC50 for human CCRF-CEM cells; type: toxicity; details: hTERT-BJ cells versus CCRF-CEM cells, read-out: Ratio IC50
HepG2 [19] = assay: Effect on GRP gene expression in human HepG2 cells at IC50 after 48 hrs by microarray analysis; type: functional, cell-based
PANC-1 [20] = assay: Effect on TDG gene expression in human PANC1 cells at IC50 after 48 hrs by microarray analysis; type: functional, cell-based
HepG2 [21] = assay: Effect on C1orf186 gene expression in human HepG2 cells at IC50 after 48 hrs by microarray analysis; type: functional, cell-based
HepG2 [22] = assay: Effect on CPB2 gene expression in human HepG2 cells at IC50 after 48 hrs by microarray analysis; type: functional, cell-based
HepG2 [23] = assay: Effect on GADD45G gene expression in human HepG2 cells at IC50 after 48 hrs by microarray analysis; type: functional, cell-based
PANC-1 [24] = assay: Effect on ABCB1 gene expression in human PANC1 cells at IC50 after 48 hrs by microarray analysis; type: functional, cell-based
HepG2 [25] = assay: Effect on PRPF4B gene expression in human HepG2 cells at IC50 after 48 hrs by microarray analysis; type: functional, cell-based
HepG2 [26] = assay: Effect on CASP7 gene expression in human HepG2 cells at IC50 after 48 hrs by microarray analysis relative to control; type: functional
PANC-1 [27] = assay: Effect on TOP3A gene expression in human PANC1 cells at IC50 after 48 hrs by microarray analysis; type: functional, cell-based
HepG2 [28] = assay: Effect on CXCR3 gene expression in human HepG2 cells at IC50 after 48 hrs by microarray analysis; type: functional, cell-based
[29] = Selectivity index, ratio of IC50 for hTERT-RPE1 cells to IC50 for human PANC1 cells; type: toxicity; details: hTERT-RPE1 cells versus PANC1 cells, read-out: Ratio IC50
TERT-RPE1 [30] = assay: Cytotoxicity against hTERT-RPE1 cells at 25 uM after 48 hrs by resazurin dye-based fluorescence assay relative to control; type: cell-based; details: human, tert-rpe1, 48 h
HepG2 [31] = assay: Effect on NAV 2 gene expression in human HepG2 cells at IC50 after 48 hrs by microarray analysis; type: functional, cell-based
PANC-1 [32] = assay: Effect on UPP1 gene expression in human PANC1 cells at IC50 after 48 hrs by microarray analysis; type: functional, cell-based
PANC-1 [33] = assay: Effect on ZNF148 gene expression in human PANC1 cells at IC50 after 48 hrs by microarray analysis; type: functional, cell-based
PANC-1 [34] = assay: Effect on ABCB4 gene expression in human PANC1 cells at IC50 after 48 hrs by microarray analysis; type: functional, cell-based
[35] = Selectivity index, ratio of IC50 for hTERT-BJ cells to IC50 for human HepG2 cells; type: toxicity; details: hTERT-BJ cells versus HepG2 cells, read-out: Ratio IC50
HepG2 [36] = assay: Effect on WDR26 gene expression in human HepG2 cells at IC50 after 48 hrs by microarray analysis; type: functional, cell-based
HepG2 [37] = assay: Effect on GDF15 gene expression in human HepG2 cells at IC50 by SYBR green-dye based qRT-PCR analysis relative to beta-actin; type: functional
HepG2 [38] = assay: Effect on CASP8 gene expression in human HepG2 cells at IC50 after 48 hrs by microarray analysis; type: functional, cell-based
hTERT-BJ [39] = assay: Cytotoxicity against hTERT-BJ cells at 6.25 uM after 48 hrs by resazurin dye-based fluorescence assay relative to control; type: cell-based; details: human
hTERT-BJ [40] = assay: Cytotoxicity against hTERT-BJ cells at 25 uM after 48 hrs by resazurin dye-based fluorescence assay relative to control; type: cell-based; details: human
HepG2 [41] = assay: Effect on SRXN1 gene expression in human HepG2 cells at IC50 after 48 hrs by microarray analysis; type: functional, cell-based
hTERT-BJ [42] = assay: Cytotoxicity against hTERT-BJ cells after 48 hrs by resazurin dye-based fluorescence assay; type: cell-based; details: Homo sapiens
HepG2 [43] = assay: Effect on OR5P2 gene expression in human HepG2 cells at IC50 after 48 hrs by microarray analysis; type: functional, cell-based
PANC-1 [44] = assay: Effect on GSTM1 gene expression in human PANC1 cells at IC50 after 48 hrs by microarray analysis; type: functional, cell-based
PANC-1 [45] = assay: Effect on JMJD2B gene expression in human PANC1 cells at IC50 after 48 hrs by microarray analysis; type: functional, cell-based
PANC-1 [46] = assay: Effect on LIMK1 gene expression in human PANC1 cells at IC50 after 48 hrs by microarray analysis; type: functional, cell-based

Compound: O=C(N/N=C/c1cc2ccccc2nc1Cl)c1cc2cc(Br)ccc2oc1=O
- IC50 (PANC-1 [1]): 5.45 µM
- Activity (TERT-RPE1 [2]): 20.18%
- Activity (PANC-1 [3]): Active
- Activity (HepG2 [4]): Active
- fold change (FC) (HepG2 [5]): 4.56
- Activity (HepG2 [6]): Dose-dependent effect
- Activity (HepG2 [7]): Active
- Activity (TERT-RPE1 [8]): 12.73%
- Activity (PANC-1 [9]): Active
- Activity (PANC-1 [10]): Active
- Activity (HepG2 [11]): Active
- Activity (PANC-1 [12]): Active
- Activity (HepG2 [13]): Active
- Activity (HepG2 [14]): Active
- fold change (FC) (HepG2 [15]): 1.96
- fold change (FC) (HepG2 [16]): -3.57
- IC50 (CCRF-CEM): 7.45 µM
- Activity (HepG2 [17]): Active
- selectivity ratio [18]: > 6.71
- Activity (HepG2 [19]): Active
- Activity (PANC-1 [20]): Active
- Activity (HepG2 [21]): Active
- Activity (HepG2 [22]): Active
- Activity (HepG2 [23]): Active
- Activity (PANC-1 [24]): Active
- Activity (HepG2 [25]): Active
- fold change (FC) (HepG2 [26]): 3.18
- Activity (PANC-1 [27]): Active
- Activity (HepG2 [28]): Active
- selectivity ratio [29]: > 9.18
- Activity (TERT-RPE1 [30]): 19.41%
- Activity (HepG2 [31]): Active
- Activity (PANC-1 [32]): Active
- Activity (PANC-1 [33]): Active
- Activity (PANC-1 [34]): Active
- selectivity ratio [35]: > 5.31
- Activity (HepG2 [36]): Active
- fold change (FC) (HepG2 [37]): 3.51
- Activity (HepG2 [38]): Active
- Activity (hTERT-BJ [39]): 1.98%
- Activity (hTERT-BJ [40]): 3.47%
- Activity (HepG2 [41]): Active
- IC50 (hTERT-BJ [42]): > 50 µM
- Activity (HepG2 [43]): Active
- Activity (PANC-1 [44]): Active
- Activity (PANC-1 [45]): Active
- Activity (PANC-1 [46]): Active
